According to patent US11291719B2, “Methods and compositions for modulating Akt3” (Augusta University Research Institute, Inc., priority 2016, dated 2022):

Tests used:
[1] = test system: experimental autoimmune encephalomyelitis (EAE); assay: Experimental autoimmune encephalomyelitis (EAE) model; format: in vivo, mouse
Source text: FIG. 24A is a schematic illustration of induction of experimental autoimmune encephalomyelitis (EAE) model. FIG. 24B is a chart showing the grading criterion for scoring severity of EAE. FIG. 24C is a line graph showing EAE score over time (days post EAE induction) for control (●), iTreg (blue circle), and mJJ64A-10 (▾) treated mice. The X-axis represents time (days) and the Y-axis represents EAE score. FIG. 24D is a line graph showing percent survival over time (days) for untreated (•), iTreg treated (●), and mJJ64A-10 treated (▾) mice. The X-axis represents time (days) and the Y-axis represents percent survival. FIG. 24E is a line graph representing EAE score over time (days post EAE induction) for control (●), iTreg (♦), mJJ64A-3 (blue circle), mJJ64A-6 (▾), and mJJ64A-10 (▴) treated EAE mice. The X-axis represents time (days post EAE induction) and the Y-axis represents EAE score. FIG. 24F is a line graph representing percent survival over time (days) for untreated (•), iTreg (blue circle), mJJ64A-3 (▾), mJJ64A-6 (▴), and mJJ64A-10 (♦) treated EAE mice. The X-axis represents time (days) and the Y-axis represents percent survival.

[2] = test system: experimental colitis; assay: Experimental colitis model; format: in vivo, mouse; conditions: Rag-/- colitis mice
Source text: FIG. 20A is a schematic illustration of the experimental design of a colitis model. FIG. 20B is a line graph representing weight (g) over time (days post-injection) for control (●), iTreg (▪), mJJ64A+iTreg (▴), and mJJ64A (∘) treated colitis mice. FIG. 20C is a line graph representing normalized weight over time (days post-injection) for control (●), iTreg (▪), mJJ64A+iTreg (▴), and mJJ64A (∘) treated colitis mice. FIG. 20D is a line graph showing percent survival of untreated (●), iTreg (blue circle), mJJ64A+iTreg (▾), and mJJ64A (red circle) treated colitis mice. The X-axis represents time (days) and the Y-axis represents percent survival. FIG. 20E-20I are representative photos of untreated (FIG. 20E), iTreg treated (FIG. 20F), JJa treated iTreg (FIG. 20G), untreated (FIG. 20H), and mJJ64A treated (FIG. 20I) colitis mice. […] FIG. 21A is a photo showing representative colons from untreated (UT), iTreg, mJJ64A treated iTreg, mJJ64A, and wild-type (WT) mice. FIG. 21B is a bar graph representing length and weight of colons from normal, untreated (UT), iTreg, mJJ64A, and mJJ64A+iTreg mice. The X-axis represents the treatment group and the Y-axis represents colon weight/length (mg/mm). […]

[3] = target: T1, Akt1 pS473 (Homo sapiens, UniProt P31749); assay: Akt1 phosphorylation in A2780 cells; format: cell-based; conditions: human ovarian carcinoma cells (A2780)
T1 construct: expression of Akt1 pS473, Akt2 pS474, Akt3 pS472, and Akt pan 5473,474,472 in A2780 cells; endogenous in cells; host or cells: A2780 human ovarian carcinoma cells
Source text: FIG. 10 is a bar graph showing the effect of mJJ64A on the expression of Akt1 pS473, Akt2 pS474, Akt3 pS472, and Akt pan 5473,474,472 in A2780 cells compared to control. The Y axis represents integrated density value.

T1 sequence (P31749 whole entry): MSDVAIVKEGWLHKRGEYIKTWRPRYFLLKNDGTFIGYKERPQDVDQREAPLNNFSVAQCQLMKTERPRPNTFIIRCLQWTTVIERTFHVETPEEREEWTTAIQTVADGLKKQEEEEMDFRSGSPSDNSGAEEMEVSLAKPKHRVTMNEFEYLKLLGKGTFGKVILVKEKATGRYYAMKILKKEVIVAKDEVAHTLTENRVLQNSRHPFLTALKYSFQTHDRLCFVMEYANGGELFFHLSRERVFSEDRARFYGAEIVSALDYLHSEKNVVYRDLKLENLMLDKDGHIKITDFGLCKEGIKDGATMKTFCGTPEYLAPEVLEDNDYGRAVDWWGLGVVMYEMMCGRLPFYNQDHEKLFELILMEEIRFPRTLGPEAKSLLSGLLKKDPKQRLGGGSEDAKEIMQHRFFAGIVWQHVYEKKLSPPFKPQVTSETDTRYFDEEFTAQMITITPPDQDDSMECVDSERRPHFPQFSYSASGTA

## N#Cc1ccc2nccc(Nc3ccc(C(=O)Nc4ccc(Nc5ccncc5)cc4)cc3)c2c1 [Compound 2]
[1]; EAE score
  disease progression in EAE model: reduced
[1]; mouse, in vivo
  survival rate in EAE model: increased
[2]
  protection against experimental colitis: protected
[3]
  phosphorylation of Akt1: not
